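Growth conditions: 96-well plates. Treatment: test compound, 48 hours, 5 concentrations. Analysis: linear interpolation between bracketing concentrations; unreached endpoints set to highest concentration. The concentration for full growth arrest is given as TGI.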
What was measured:
Assay in all cases: NCI tumour cell line growth inhibition, 48 h
HCC-2998 colon = system: HCC-2998 colon
MALME-3M melanoma = system: MALME-3M melanoma
ACHN renal = system: ACHN renal
A498 renal = system: A498 renal
A549 NSCLC = system: A549 NSCLC
NCI-H226 lung = system: NCI-H226 lung
SK-MEL-2 melanoma = system: SK-MEL-2 melanoma
SK-OV-3 ovarian = system: SK-OV-3 ovarian
HCT-116 colon = system: HCT-116 colon
BT-549 breast = system: BT-549 breast

Structure (SMILES) | TGI (HCC-2998 colon) | TGI (MALME-3M melanoma) | TGI (ACHN renal) | TGI (A498 renal) | TGI (A549 NSCLC) | TGI (NCI-H226 lung) | TGI (SK-MEL-2 melanoma) | TGI (SK-OV-3 ovarian) | TGI (HCT-116 colon) | TGI (BT-549 breast)
CC(C)Oc1cc2c(cc1O)CC[C@@H]1[C@@H]2CC[C@]2(C)[C@@H](O)CC[C@@H]12 | 20.9 µM | 27.3 µM | > 84.7 µM | 26.9 µM | 65.9 µM | 18.4 µM | > 24.8 µM | 48.3 µM | 14.7 µM | 52.7 µM
CCn1c(SCc2nnc(Nc3ccccc3)s2)nc2ccccc2c1=O | 31.7 µM | 14 µM | 9.16 µM | 3.92 µM | 19.3 µM | 7.75 µM | 32 µM | 7.66 µM | 3.97 µM | 26.7 µM
COCCN(C(=O)c1ccccc1)C1CCC(=O)c2[nH]c3ccccc3c21 (stereo not given) | 31.8 µM | 17.7 µM | 30.4 µM | 33.4 µM | 31.2 µM | 20.6 µM | 17.8 µM | 29 µM | 26.5 µM | 8.22 µM
